One experiment has as its target T1, DOCK1 (DHR-2 domain) (Homo sapiens, UniProt Q14185).
T1 construct: polypeptide fragments corresponding to the DHR-2 domain of DOCK1 or DOCK2 from mice and humans; Histidine-SUMO (N); made in house; host or cells: E. coli Arctic express (DE3)
T1 sequence (Q14185 1207-1617 limits assumed): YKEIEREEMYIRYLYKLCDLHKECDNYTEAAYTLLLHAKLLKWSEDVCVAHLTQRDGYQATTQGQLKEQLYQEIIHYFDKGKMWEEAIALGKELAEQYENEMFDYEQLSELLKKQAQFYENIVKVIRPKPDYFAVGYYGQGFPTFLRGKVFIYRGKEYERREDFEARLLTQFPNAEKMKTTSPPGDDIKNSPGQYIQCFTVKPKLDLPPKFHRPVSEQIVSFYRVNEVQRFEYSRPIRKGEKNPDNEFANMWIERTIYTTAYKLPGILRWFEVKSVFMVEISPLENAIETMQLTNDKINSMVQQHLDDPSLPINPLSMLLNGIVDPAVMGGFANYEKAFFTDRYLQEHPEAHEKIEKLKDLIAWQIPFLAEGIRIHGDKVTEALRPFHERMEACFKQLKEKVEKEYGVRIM
As to the kind of experiment: In vitro GEF assay: Rac activation by DOCK1 DHR-2 domain. Type of experiment: biochemical, mice and humans. The note with it: in words; for selective inhibitory activity against DOCK1 versus DOCK2: GEF assay DOCK1 vs DOCK2 DHR-2 domain; for DOCK1-inhibiting activity compared with TBOPP / selective inhibitory activity against DOCK1 compared to TBOPP: GEF assay. The procedure:
DOCK1 and DOCK2, i.e., DOCK-A subfamily members, both activate Rac by catalyzing the GTP-GDP exchange reaction for Rac via their DHR-2 domains. Therefore, in this Pharmacological Test, the inhibitory effect of the compounds of the present invention on Rac activation by DOCK1 or DOCK2 was assessed in an in vitro GEF assay by using polypeptide fragments corresponding to the DHR-2 domain of DOCK1 or DOCK2 from mice and humans. The in vitro GEF assay was performed using a labeled GTP (Bodipy-FL-GTP, Invitrogen), which has a property of increasing the fluorescence intensity when bound to Rac.
The polypeptide fragments corresponding to the DHR-2 domain of DOCK1 or DOCK2 were prepared by expression in E. coli Arctic express (DE3) cells as N-terminal. Histidine-SUMO tag-fused recombinant proteins, followed by purification by affinity column chromatography on nickel-NTA columns.
Rac was prepared by expression in E. coli BL21 (DE3) cells as an N-terminal GST tag-fused recombinant protein, followed by purification by affinity column chromatography on glutathione-Sepharose columns.
Each of the polypeptide fragments corresponding to the DHR-2 domain of DOCK1 or DOCK2, and a predetermined concentration of each test compound (the compounds of the present invention: 33 types of compounds; and comparative compound: TBOPP) dissolved in DMSO were incubated in a reaction solution A (pH 7.0), which contained 20 mM of MES-NaOH, 150 mM of NaCl, 10 mM of MgCl2, and 20 μM of GDP for 20 minutes at room temperature while being shielded from light to thus prepare GEF pretreated products. The final concentration of DMSO was adjusted to 1 mass % in all of the test samples. For a control test, a GEF pretreated product (control) was prepared by incubation in the same manner using DMSO with no test compounds, instead of the DMSO used above in which each test compound was dissolved.
Separately, Rac was added to the reaction solution A (pH 7.0) to a concentration of 15 μM, and was allowed to stand on for 30 min to form a GDP-Rac complex. Bodipy-FL-GTP was added to a concentration of 3.6 μM to 100 μL of the reaction solution A that contained the thus-prepared GDP-Rac complex, and equilibrated at 30° C. for 2 minutes. After equilibration, 50 μL of the GEF pretreated product prepared as described above was added and reacted at 30° C.
Changes in fluorescence intensity of Bodipy-FL-GTP in the reaction solutions were monitored using an EnSpire spectrofluorometer (Perkin Elmer) (excitation wavelength: 488 nm, fluorescence wavelength: 514 nm). The measured values were corrected so that the fluorescence intensity at the beginning of the reaction (0 sec) was 0. Then, an approximate curve (hyperbola) was obtained by plotting the calculated correction values on the y-axis and the time (t) on the x-axis using GraphPad Prism5 (GraphPad software), and the slope at t=0 to 10 seconds was defined as the initial velocity of the guanine nucleotide exchange reaction. The IC50 value was calculated taking the initial reaction velocity of the control, to which only a solvent (DMSO) was added, as 100%.
Based on the obtained results, columns A and B of FIG. 1, FIG. 2, FIG. 3-1, and FIG. 3-2 show the results evaluating the inhibitory effect on Rac activation by DOCK1 (DHR-2 domain) (IC50 value), and DOCK1-selective inhibitory effect (DOCK1/DOCK2 selectivity) of each test compound. The inhibitory effect on Rac activation by DOCK1 (DHR-2 domain) (IC50 value) was determined from the reaction inhibition curve plotted using values of Rac activation by the DOCK1 DHR-2 domain in the presence of various concentrations of the test compounds, taking the values of the control as 100%. […]

In experiment [1] the test system is mouse lung carcinoma cell line (3LL cells). As to the kind of experiment: Cell invasion inhibition assay (Matrigel invasion chamber). The note with it: in words. Type of experiment: cell-based. As to the method:
In this Pharmacological Test, the inhibitory effect of each test compound on cell invasion response was evaluated using a mouse lung carcinoma cell line (3LL cells), a mouse pancreatic cancer cell line (PANC02 cells), and a human breast cancer cell line (MDA-MB-157 cells). Of these, the mouse lung carcinoma cell line (3LL) is a cancer cell line with mutant Ras (K-Ras (G12C)), and the human breast cancer cell line (MDA-MB-157) is a cancer cell line with mutant Rac (Rac1 (P29S)). The experiments were performed in BD BioCoat Matrigel invasion chambers (BD Biosciences).
Specifically, an upper chamber with a Matrigel-coated membrane insert (8 μm pores) at the bottom was equilibrated with DMEM (serum-free medium) for 120 minutes. Thereafter, 300 μL of a suspension of a cancer cell line in DMEM (serum-free) was placed in the upper chamber while 500 μL of DMEM (with 10 mass % FCS) was placed in the lower chamber. Each test compound dissolved in DMSO at a predetermined concentration was added to both the culture media in the upper and lower chambers. As a control, DMSO alone was added to both the culture media in the upper and lower chambers. In all of the experiments, the final DMSO concentration in the culture media was adjusted to 0.2 mass %.
The resulting products were cultured under 5% CO2 at 37° C. for 22 hours (3LL and PANC02 cells) or 48 hours (MDA-MB-157 cells). Then, the upper chamber was removed, and the culture medium was removed. Thereafter, non-invading cells remaining in the upper chamber were removed using a cotton swab, and the cells remaining outside the bottom of the upper chamber (cells that had invaded into the Matrigel, and passed through the membrane insert) were stained with Diff-Quick (Sysmex). After staining, the membrane inserts with Matrigel were cut out using a scalpel to prepare slides, and the number of invading cells was counted under an optical microscope.
The results were evaluated based on percent cell invasion (%: Invasion) and percent inhibition (%: Inhibition). The percent cell invasion was obtained by converting the number of invading cells in the presence of each test compound into a percentage, taking the number of invading cells in the control test, in which DMSO was added alone, as 100%; and the percent inhibition was obtained by deducting the percent cell invasion from 100.

Molecules are shown by their SMILES.

In the case of `O=C(Cn1cc(S(=O)(=O)N2CCCC2)ccc1=O)c1ccc(-c2cccc(C(F)(F)F)c2)cc1O` [AK-15, 1-(2-(3-hydroxy-3′-(trifluoromethyl)-[1,1′-biphenyl]-4-yl)-2-oxoethyl)-5-(pyrrolidin-1-yl-sulfonyl)pyridin-2(1H)-one], at DOCK1 (DHR-2 domain), the “selective inhibitory activity against DOCK1 versus DOCK2” value is on record as “higher selective inhibitory activity against DOCK1 than against DOCK2”.

Consider `O=c1ccc(S(=O)(=O)N2CCCC2)cn1CC(O)c1ccc(-c2cccc(C(F)(F)F)c2)cc1O` (stereo not drawn) [AK-16, 1-(2-hydroxy-2-(3-hydroxy-3′-(trifluoromethyl)-[1,1′-biphenyl]-4-yl)ethyl)-5-(pyrrolidin-1-yl-sulfonyl)pyridin-2(1H)-one], for which, on DOCK1 (DHR-2 domain), the “DOCK1-inhibiting activity compared with TBOPP” value is “slightly lower DOCK1-inhibiting activity” and the “selective inhibitory activity against DOCK1 compared to TBOPP” value is on record as “higher selective inhibitory activity against DOCK1”.

Regarding `CC1(C)Oc2cc(-c3cccc(C(F)(F)F)c3)ccc2C(Cn2cc(S(=O)(=O)N3CCCC3)ccc2=O)O1` (stereo not drawn) [AK-17, 1-((2,2-dimethyl-7-(3-(trifluoromethyl)phenyl)-4H-benzo[d][1,3]dioxin-4-yl)methyl)-5-(pyrrolidin-1-yl-sulfonyl)pyridin-2(1H)-one], the “selective inhibitory activity against DOCK1 versus DOCK2” value on DOCK1 (DHR-2 domain) was “higher selective inhibitory activity against DOCK1 than against DOCK2”.

Take `CCCCCCOc1cc(-c2cccc(C(F)(F)F)c2)ccc1C(=O)C(CCCCCC)n1cc(S(=O)(=O)N2CCCC2)ccc1=O` (stereo not drawn) [AK-23, 1-(1-(3-(hexyloxy)-3′-(trifluoromethyl)-[1,1′-biphenyl]-4-yl)-1-oxooctan-2-yl)-5-(pyrrolidin-1-yl-sulfonyl)pyridin-2(1H)-one]: the “selective inhibitory activity against DOCK1 versus DOCK2” value on DOCK1 (DHR-2 domain) is recorded as “higher selective inhibitory activity against DOCK1 than against DOCK2”.

For the compound `O=C(Cn1cc(S(=O)(=O)N2CCCC2)ccc1=O)c1ccc(-c2cccc(C(F)(F)F)c2)cc1OCCc1ccccc1` [AK-24, 1-(2-oxo-2-(3-phenethoxy-3′-(trifluoromethyl)-[1,1′-biphenyl]-4-yl)ethyl)-5-(pyrrolidin-1-yl-sulfonyl)pyridin-2(1H)-one], the “selective inhibitory activity against DOCK1 versus DOCK2” value on DOCK1 (DHR-2 domain) is on record as “higher selective inhibitory activity against DOCK1 than against DOCK2”.

`O=S(=O)(c1cc(CO)n(CC(O)c2ccc(-c3cccc(C(F)(F)F)c3)cc2)c1)N1CCCC1` (stereo not drawn) [HS-14, 2-(2-(hydroxymethyl)-4-(pyrrolidin-1-yl-sulfonyl)-1H-pyrrol-1-yl)-1-(3′-(trifluoromethyl)-[1,1′-biphenyl]-4-yl)ethan-1-ol]: on DOCK1 (DHR-2 domain), the “DOCK1-inhibiting activity compared with TBOPP” value is reported as “slightly lower DOCK1-inhibiting activity”, the “selective inhibitory activity against DOCK1 compared to TBOPP” value is on record as “higher selective inhibitory activity against DOCK1” and the “selective inhibitory activity against DOCK1 versus DOCK2” value was “higher selective inhibitory activity against DOCK1 than against DOCK2”.

For the compound `CCC(=O)c1cc(S(=O)(=O)N2CCCC2)cn1CC(=O)c1ccc(-c2cccc(C(F)(F)F)c2)cc1` [HS-17, 1-(1-(2-oxo-2-(3′-(trifluoromethyl)-[1,1′-biphenyl]-4-yl)ethyl)-4-(pyrrolidin-1-yl-sulfonyl)-1H-pyrrol-2-yl)propan-1-one], the “percent cell invasion inhibition compared with TBOPP” value in experiment [1] is listed as “higher percent cell invasion inhibition than TBOPP”.

Take `CC(=O)Oc1cc(-c2ccc(-c3cccc(C(F)(F)F)c3)cc2)cn2cc(S(=O)(=O)N3CCCC3)cc12` [HS-20, 2-(pyrrolidin-1-yl-sulfonyl)-6-(3′-(trifluoromethyl)-[1,1′-biphenyl]-4-yl)-indolizin-8-yl acetate]: the “selective inhibitory activity against DOCK1 versus DOCK2” value at DOCK1 (DHR-2 domain) is reported as “higher selective inhibitory activity against DOCK1 than against DOCK2”.

With `O=C(Cn1cc(S(=O)(=O)N2CCC(c3ccc(-c4ccccc4)cc3)CC2)ccc1=O)c1ccc(-c2cccc(C(F)(F)F)c2)cc1` [KS-43, 5-((4-([1,1′-biphenyl]-4-yl)piperidin-1-yl)sulfonyl)-1-(2-oxo-2-(3′-(trifluoromethyl)-[1,1′-biphenyl]-4-yl)ethyl)pyridin-2(1H)-one], the “selective inhibitory activity against DOCK1 versus DOCK2” value at DOCK1 (DHR-2 domain) is “higher selective inhibitory activity against DOCK1 than against DOCK2”.

In the case of `O=C(Cn1cc(S(=O)(=O)N2CCC(c3ccc(-c4ccc5c(c4)Cc4ccccc4-5)cc3)CC2)ccc1=O)c1ccc(-c2cccc(C(F)(F)F)c2)cc1` [KS-46, 5-((4-(4-(9H-fluoren-2-yl)phenyl)piperidin-1-yl)sulfonyl)-1-(2-oxo-2-(3′-(trifluoromethyl)-[1,1′-biphenyl]-4-yl)ethyl)pyridin-2(1H)-one], the “selective inhibitory activity against DOCK1 versus DOCK2” value at DOCK1 (DHR-2 domain) is recorded as “higher selective inhibitory activity against DOCK1 than against DOCK2”.

On to `O=C(Cn1cc(S(=O)(=O)N2CCC(c3ccc(-c4c5ccccc5cc5ccccc45)cc3)CC2)ccc1=O)c1ccc(-c2cccc(C(F)(F)F)c2)cc1` [KS-47, 5-((4-(4-(anthracen-9-yl)phenyl)piperidin-1-yl)sulfonyl)-1-(2-oxo-2-(3′-(trifluoromethyl)-[1,1′-biphenyl]-4-yl)ethyl)pyridin-2(1H)-one], for which the “selective inhibitory activity against DOCK1 versus DOCK2” value on DOCK1 (DHR-2 domain) is reported as “higher selective inhibitory activity against DOCK1 than against DOCK2”.

Turning to `CN(C)C(=O)c1cc(S(=O)(=O)N2CCCC2)cn1CC(=O)c1ccc(-c2cccc(C(F)(F)F)c2)cc1` [RT-23, N,N-dimethyl-1-(2-oxo-2-(3′-(trifluoromethyl)-[1,1′-biphenyl]-4-yl)ethyl)-4-(pyrrolidin-1-yl-sulfonyl)-1H-pyrrole-2-carboxamide], on DOCK1 (DHR-2 domain), the “selective inhibitory activity against DOCK1 versus DOCK2” value is given as “higher selective inhibitory activity against DOCK1 than against DOCK2”.
